Test results published in ChEMBL document CHEMBL1151123, “Isolation of a New Indole Alkaloid, Pendolmycin, from Nocardiopsis” (J Nat Prod, 1988).
≈ marks a conversion by molar mass, not a printed value. Calls of active or inactive are those of the source. No cut-off for these calls is given here.

How the values were obtained:
[1] = system: Mycolicibacterium smegmatis; experiment: Antibacterial activity against Mycobacterium smegmatis; type: functional
A-431 = experiment: Inhibition of phosphatidylinositol turnover in EGF-stimulated human A431 cells by liquid scintillation counting; type: functional, cell-based
Staphylococcus aureus = experiment: Antibacterial activity against Staphylococcus aureus; type: functional
Micrococcus luteus = experiment: Antibacterial activity against Micrococcus luteus; type: functional
Corynebacterium bovis = experiment: Antibacterial activity against Corynebacterium bovis; type: functional
Bacillus subtilis = experiment: Antibacterial activity against Bacillus subtilis; type: functional
Klebsiella pneumoniae = experiment: Antibacterial activity against Klebsiella pneumoniae; type: functional
Bacillus cereus = experiment: Antibacterial activity against Bacillus cereus; type: functional
Bacillus anthracis = experiment: Antibacterial activity against Bacillus anthracis; type: functional
Zone of skin = experiment: Toxicity in human skin assessed as erythema; type: tissue-based
[2] = biological target: Epidermal growth factor receptor (Homo sapiens) (UniProt P00533); experiment: Inhibition of EGF binding to EGFR in human A431 cells; type: cell-based; details: A-431
Sequence of Epidermal growth factor receptor (Homo sapiens) (P00533 whole entry): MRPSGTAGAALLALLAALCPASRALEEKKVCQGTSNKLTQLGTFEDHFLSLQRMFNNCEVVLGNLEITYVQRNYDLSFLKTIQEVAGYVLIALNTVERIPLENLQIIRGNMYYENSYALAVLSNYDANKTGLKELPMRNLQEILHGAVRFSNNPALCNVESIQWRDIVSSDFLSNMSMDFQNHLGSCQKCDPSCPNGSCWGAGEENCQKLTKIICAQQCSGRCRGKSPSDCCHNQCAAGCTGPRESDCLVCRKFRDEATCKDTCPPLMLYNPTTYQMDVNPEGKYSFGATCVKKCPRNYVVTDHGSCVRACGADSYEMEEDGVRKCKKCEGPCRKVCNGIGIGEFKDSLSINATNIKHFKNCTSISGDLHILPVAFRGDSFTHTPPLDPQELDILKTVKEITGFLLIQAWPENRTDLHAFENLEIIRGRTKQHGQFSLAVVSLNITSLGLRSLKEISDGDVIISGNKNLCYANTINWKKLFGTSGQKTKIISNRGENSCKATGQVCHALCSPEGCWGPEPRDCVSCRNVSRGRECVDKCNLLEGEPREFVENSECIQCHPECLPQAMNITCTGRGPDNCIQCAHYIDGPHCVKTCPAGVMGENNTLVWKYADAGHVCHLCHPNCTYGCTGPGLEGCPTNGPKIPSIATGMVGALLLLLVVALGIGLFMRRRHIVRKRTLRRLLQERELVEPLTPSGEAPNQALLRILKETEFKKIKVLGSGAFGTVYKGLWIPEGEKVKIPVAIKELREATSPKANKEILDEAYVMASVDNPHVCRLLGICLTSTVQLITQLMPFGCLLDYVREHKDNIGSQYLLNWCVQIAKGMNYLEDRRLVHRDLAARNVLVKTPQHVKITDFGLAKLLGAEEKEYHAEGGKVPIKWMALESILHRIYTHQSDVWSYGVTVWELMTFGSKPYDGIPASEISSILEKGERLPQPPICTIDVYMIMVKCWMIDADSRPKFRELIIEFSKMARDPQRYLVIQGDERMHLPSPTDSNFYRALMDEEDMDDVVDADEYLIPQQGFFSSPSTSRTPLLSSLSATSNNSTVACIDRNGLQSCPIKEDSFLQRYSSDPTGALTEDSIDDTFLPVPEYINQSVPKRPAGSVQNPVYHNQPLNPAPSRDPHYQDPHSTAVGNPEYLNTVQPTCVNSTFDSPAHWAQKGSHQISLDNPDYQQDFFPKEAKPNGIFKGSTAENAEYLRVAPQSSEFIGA

Row | SMILES | MIC [1] [µg/mL] | IC50 (A-431) [µg/mL] | MIC (Staphylococcus aureus) [µg/mL] | MIC (Micrococcus luteus) [µg/mL] | MIC (Corynebacterium bovis) [µg/mL] | MIC (Bacillus subtilis) [µg/mL] | MIC (Klebsiella pneumoniae) [µg/mL] | MIC (Bacillus cereus) [µg/mL] | MIC (Bacillus anthracis) [µg/mL] | Activity (Zone of skin) | Activity [2]
1 | C=CC(C)(C)c1ccc2c3c(c[nH]c13)C[C@@H](CO)NC(=O)[C@H](C(C)C)N2C [PENDOLMYCIN] | 50 (≈ 135 µM) | 0.001 (≈ 0.00271 µM) | 25 (≈ 67.7 µM) | 25 (≈ 67.7 µM) | 50 (≈ 135 µM) | 50 (≈ 135 µM) | 100 (≈ 271 µM) | 50 (≈ 135 µM) | 50 (≈ 135 µM) | Toxic | inactive
2 | C=C[C@]1(C)CC[C@@](C)(C(C)C)c2cc3c4c(c[nH]c4c21)C[C@@H](CO)NC(=O)[C@H](C(C)C)N3C | – | – | – | – | – | – | – | – | – | – | inactive
